What all share (assay): biochemical
Holding throughout (set-up): Thermo Fisher SelectScreen kinase panel: Z'-LYTE and Adapta activity, LanthaScreen binding
In general terms: In TR-FRET formats the signal depends on donor and acceptor labels being close together.

Experiment [1] deals with BTK (Homo sapiens, UniProt Q06187). An outline of the steps:
(§1)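 GNE684 profiled at 10 µM across 221 kinases with Z'-LYTE and Adapta activity and LanthaScreen binding formats. Also screened at 10 µM against 468 kinases in KINOMEscan scanMAX binding assay.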

For experiment [2], the target named is ERBB4 (Homo sapiens, UniProt Q15303). An outline of the steps:
as §1

Experiment [3] concerns the target BRSK1 (Homo sapiens, UniProt Q8TDC3). Put shortly:
as §1

For experiment [4], the target named is GRK5 (Homo sapiens, UniProt P34947). Put shortly:
as §1

Experiment [5] has as its target SRC (Homo sapiens, UniProt P12931). Put shortly: as §1
Experiment [6] concerns the target T1, Aurora_B (Homo sapiens, UniProt Q96GD4).
T1 construct: gene AURKB
An outline of the steps:
as §1

Experiment [7] concerns the target T2, CaMKII_beta (Homo sapiens, UniProt Q13554).
T2 construct: gene CAMK2B
Put shortly: as §1

The target in experiment [8] is T3, CK1_epsilon1 (Homo sapiens, UniProt P49674).
T3 construct: gene CSNK1E
Put shortly:
as §1

Experiment [9] has as its target STK16 (Homo sapiens, UniProt O75716). Put shortly: as §1
For experiment [10], the target named is SYK (Homo sapiens, UniProt P43405). Put shortly:
as §1

The target of experiment [11] is T4, MLK1 (Homo sapiens, UniProt P80192).
T4 construct: gene MAP3K9
Put shortly: as §1

Experiment [12] deals with FLT1 (Homo sapiens, UniProt P17948). Put shortly:
as §1

Experiment [13] has as its target T5, CK2_alpha1 (Homo sapiens, UniProt P68400).
T5 construct: gene CSNK2A1
An outline of the steps:
as §1

The target in experiment [14] is T6, ERK2 (Homo sapiens, UniProt P28482).
T6 construct: gene MAPK1
T6 sequence (P28482 whole entry): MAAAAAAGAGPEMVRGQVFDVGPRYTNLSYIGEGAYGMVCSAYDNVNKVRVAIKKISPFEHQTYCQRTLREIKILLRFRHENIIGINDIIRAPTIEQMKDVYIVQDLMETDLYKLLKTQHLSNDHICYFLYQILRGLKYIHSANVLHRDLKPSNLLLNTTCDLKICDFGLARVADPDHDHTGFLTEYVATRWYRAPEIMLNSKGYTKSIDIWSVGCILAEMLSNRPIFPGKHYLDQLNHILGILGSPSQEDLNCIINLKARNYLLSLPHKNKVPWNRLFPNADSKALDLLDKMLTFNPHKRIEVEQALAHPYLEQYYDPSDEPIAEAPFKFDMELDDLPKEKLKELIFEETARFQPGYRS
Put shortly:
as §1

Experiment [15] concerns the target HIPK4 (Homo sapiens, UniProt Q8NE63). An outline of the steps: as §1
Experiment [16] deals with RAF1(Y340D,Y341D) (Homo sapiens, UniProt P04049, Y340D/Y341D). An outline of the steps: as §1
For experiment [17], the target named is HIPK1 (Homo sapiens, UniProt Q86Z02). Put shortly:
as §1

In experiment [18] the target is PAK1 (Homo sapiens, UniProt Q13153). Put shortly:
as §1

Experiment [19] has as its target PRKAA1 (Homo sapiens, UniProt Q13131). Put shortly:
as §1

The target of experiment [20] is EPHA3 (Homo sapiens, UniProt P29320). Put shortly: as §1
Experiment [21] has as its target T7, CamKIV (Homo sapiens, UniProt Q16566).
T7 construct: gene CAMK4
An outline of the steps: as §1

For experiment [22], the target named is SGK1 (Homo sapiens, UniProt O00141). Put shortly:
as §1

Experiment [23] has as its target T8, CHK1 (Homo sapiens, UniProt O14757).
T8 construct: gene CHEK1
An outline of the steps:
as §1

Each structure is given as a SMILES string.

T2 sequence (Q13554 whole entry): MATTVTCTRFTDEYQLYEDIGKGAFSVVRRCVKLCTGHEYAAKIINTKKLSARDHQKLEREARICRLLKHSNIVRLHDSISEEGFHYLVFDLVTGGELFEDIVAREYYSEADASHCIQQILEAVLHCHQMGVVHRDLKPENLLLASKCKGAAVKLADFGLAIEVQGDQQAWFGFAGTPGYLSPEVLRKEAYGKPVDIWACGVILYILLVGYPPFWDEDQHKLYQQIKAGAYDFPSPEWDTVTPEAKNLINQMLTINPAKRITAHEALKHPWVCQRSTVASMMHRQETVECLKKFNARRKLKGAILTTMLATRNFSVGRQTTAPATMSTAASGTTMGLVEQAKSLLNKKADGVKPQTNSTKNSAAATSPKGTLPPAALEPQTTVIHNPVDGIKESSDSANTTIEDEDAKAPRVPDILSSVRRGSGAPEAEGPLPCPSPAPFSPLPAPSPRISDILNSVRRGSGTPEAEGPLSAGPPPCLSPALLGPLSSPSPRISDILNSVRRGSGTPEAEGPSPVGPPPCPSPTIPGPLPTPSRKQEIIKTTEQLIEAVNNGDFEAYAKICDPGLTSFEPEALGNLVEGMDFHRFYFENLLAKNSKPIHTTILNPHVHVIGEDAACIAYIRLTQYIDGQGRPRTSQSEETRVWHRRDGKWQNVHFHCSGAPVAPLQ
PRKAA1, sequence (Q13131 whole entry): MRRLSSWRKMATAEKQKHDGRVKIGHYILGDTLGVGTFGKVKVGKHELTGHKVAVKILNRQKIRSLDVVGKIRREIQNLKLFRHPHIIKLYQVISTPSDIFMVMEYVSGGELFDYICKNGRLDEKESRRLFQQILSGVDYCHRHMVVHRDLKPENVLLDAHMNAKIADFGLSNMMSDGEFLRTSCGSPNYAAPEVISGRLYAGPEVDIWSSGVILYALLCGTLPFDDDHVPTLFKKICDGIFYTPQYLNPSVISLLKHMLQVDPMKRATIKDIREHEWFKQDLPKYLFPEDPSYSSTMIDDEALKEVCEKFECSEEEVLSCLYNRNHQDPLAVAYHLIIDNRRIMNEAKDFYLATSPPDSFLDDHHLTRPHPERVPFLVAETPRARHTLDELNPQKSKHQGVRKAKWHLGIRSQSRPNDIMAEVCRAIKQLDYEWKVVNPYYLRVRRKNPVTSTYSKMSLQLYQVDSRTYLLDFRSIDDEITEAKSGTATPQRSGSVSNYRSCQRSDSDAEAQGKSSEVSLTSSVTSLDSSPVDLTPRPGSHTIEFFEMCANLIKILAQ
HIPK1, sequence (Q86Z02 whole entry): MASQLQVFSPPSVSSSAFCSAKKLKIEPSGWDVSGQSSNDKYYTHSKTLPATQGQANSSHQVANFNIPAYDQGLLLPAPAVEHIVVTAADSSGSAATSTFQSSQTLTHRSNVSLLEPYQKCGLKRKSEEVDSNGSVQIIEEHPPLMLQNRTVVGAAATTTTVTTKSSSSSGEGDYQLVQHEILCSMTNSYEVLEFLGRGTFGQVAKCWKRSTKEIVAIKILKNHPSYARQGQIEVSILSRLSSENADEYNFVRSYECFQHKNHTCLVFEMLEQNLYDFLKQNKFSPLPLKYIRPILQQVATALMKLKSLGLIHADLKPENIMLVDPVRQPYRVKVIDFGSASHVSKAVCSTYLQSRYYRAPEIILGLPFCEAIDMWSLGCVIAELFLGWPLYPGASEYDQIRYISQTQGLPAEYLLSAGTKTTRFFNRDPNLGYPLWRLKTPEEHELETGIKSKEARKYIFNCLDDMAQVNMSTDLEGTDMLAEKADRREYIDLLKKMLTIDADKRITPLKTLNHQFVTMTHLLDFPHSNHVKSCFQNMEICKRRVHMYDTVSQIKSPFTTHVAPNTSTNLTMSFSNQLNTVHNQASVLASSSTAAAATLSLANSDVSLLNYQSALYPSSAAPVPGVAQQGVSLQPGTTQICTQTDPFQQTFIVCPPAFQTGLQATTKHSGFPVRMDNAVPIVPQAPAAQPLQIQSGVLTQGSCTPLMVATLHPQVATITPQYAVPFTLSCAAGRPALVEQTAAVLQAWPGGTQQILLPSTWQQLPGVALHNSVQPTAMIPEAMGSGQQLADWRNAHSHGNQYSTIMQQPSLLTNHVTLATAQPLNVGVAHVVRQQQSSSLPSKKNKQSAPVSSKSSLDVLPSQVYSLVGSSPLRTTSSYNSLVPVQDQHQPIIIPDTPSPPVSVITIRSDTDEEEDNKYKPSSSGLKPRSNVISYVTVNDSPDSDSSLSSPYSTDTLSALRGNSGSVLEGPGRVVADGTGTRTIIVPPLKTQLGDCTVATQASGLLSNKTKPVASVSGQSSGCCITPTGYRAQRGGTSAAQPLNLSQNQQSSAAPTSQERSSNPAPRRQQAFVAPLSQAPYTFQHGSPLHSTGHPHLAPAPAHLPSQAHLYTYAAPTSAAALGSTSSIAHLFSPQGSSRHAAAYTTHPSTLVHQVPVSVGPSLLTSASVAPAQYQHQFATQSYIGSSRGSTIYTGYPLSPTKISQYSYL
FLT1, sequence (P17948 whole entry): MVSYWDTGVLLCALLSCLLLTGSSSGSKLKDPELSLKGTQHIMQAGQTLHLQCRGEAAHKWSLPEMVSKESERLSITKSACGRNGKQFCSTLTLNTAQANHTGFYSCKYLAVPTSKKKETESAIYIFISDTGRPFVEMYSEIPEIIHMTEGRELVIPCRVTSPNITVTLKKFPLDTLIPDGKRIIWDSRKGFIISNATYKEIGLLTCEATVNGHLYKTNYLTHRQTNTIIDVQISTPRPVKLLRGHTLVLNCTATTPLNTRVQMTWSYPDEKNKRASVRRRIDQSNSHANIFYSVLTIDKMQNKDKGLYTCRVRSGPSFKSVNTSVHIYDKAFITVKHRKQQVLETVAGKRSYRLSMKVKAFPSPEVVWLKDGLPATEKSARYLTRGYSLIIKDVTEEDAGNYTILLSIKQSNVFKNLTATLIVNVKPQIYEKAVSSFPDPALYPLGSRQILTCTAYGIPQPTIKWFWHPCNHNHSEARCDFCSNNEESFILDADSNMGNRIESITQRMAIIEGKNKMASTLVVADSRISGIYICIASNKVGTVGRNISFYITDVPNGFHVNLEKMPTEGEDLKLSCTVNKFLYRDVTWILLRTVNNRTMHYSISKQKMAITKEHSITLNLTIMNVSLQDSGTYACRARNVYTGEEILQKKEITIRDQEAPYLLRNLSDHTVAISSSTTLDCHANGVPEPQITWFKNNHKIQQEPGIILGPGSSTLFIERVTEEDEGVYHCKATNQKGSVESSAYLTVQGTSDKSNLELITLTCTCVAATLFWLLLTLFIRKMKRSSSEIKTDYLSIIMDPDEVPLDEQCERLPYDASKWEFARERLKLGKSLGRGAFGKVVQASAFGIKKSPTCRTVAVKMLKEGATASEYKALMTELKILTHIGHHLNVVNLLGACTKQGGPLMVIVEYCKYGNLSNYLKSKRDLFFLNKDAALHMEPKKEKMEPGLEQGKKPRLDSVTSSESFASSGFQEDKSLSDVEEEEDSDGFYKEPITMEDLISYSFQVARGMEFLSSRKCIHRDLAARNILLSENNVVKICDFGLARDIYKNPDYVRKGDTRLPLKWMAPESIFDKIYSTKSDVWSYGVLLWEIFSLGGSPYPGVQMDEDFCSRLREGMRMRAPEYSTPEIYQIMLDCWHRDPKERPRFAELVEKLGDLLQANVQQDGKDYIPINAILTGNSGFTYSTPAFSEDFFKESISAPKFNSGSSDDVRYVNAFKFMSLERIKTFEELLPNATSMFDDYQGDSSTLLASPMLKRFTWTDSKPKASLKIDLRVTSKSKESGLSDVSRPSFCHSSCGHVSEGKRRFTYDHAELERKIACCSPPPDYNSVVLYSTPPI
BRSK1, sequence (Q8TDC3 whole entry): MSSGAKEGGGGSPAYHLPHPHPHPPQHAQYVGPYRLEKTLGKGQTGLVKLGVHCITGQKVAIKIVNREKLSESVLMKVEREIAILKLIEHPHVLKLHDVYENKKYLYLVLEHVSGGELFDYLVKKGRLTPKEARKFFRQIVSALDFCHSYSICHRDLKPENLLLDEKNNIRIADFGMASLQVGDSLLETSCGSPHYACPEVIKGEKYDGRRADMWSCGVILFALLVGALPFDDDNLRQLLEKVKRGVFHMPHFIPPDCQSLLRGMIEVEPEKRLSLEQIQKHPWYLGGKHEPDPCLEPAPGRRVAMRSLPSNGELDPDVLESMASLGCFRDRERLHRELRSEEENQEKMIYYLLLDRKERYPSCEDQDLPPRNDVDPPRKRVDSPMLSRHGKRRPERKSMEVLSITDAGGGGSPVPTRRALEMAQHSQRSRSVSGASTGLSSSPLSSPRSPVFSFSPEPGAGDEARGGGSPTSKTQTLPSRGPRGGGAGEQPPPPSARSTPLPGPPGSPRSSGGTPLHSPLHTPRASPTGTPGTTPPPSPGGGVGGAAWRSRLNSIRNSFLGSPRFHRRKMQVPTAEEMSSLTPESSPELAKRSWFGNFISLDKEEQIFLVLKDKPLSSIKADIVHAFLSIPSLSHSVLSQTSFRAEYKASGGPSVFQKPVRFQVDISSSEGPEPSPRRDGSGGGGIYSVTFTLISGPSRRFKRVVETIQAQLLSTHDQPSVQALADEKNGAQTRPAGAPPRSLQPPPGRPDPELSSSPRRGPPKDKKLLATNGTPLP

In general, inhibition refers to the relative decrease from the control value, in per cent. With `COc1cc2c(cn1)N(C)C(=O)[C@@H](NC(=O)c1nc3n(n1)[C@H](c1ccccc1)CC3)CC2` [GNE684, (S)-N-((S)-7-methoxy-1-methyl-2-oxo-2,3,4,5-tetrahydro-1H-pyrido[3,4-b]azepin-3-yl)-5-phenyl-6,7-dihydro-5H-pyrrolo[1,2-b][1,2,4]triazole-2-carboxamide], the inhibition at 10 µM in experiment [1] is -3.5%; in experiment [2], 4%; in experiment [3] it was 2.5%; in experiment [4], 4.5%; in experiment [5], -1%; in experiment [6], 6.5%. Also, the inhibition at 10 µM in experiment [7] was 2.5%; in experiment [8], 5%; in experiment [9], -2%; in [10], -1.5%; in experiment [11], 7.5%; in experiment [12], 3.5%. For the same compound, the inhibition at 10 µM in experiment [13] was 3.5%; in experiment [14], 1%; in experiment [15], 11.5%; in [16], -2%; in experiment [17], 0%; in experiment [18] it was 2.5%. Moreover, the inhibition at 10 µM in experiment [19] is -3%; in experiment [20], -3.5%; in experiment [21] it was -1%; in [22], -1%; in experiment [23], -7%.
